Nine compounds from US20240400577A1, “MODULATORS OF PROTEIN KINASES” (VIBLIOME THERAPEUTICS, LLC, priority 2021, published 2024) can be followed below.

What all share (experiment): Kinase panel enzymatic inhibition assay (Nanosyn)
Assay type in all cases: biochemical

One experiment deals with T1, KDR (Homo sapiens, UniProt P35968).
T1 construct: purchased Nanosyn (contract screening)
The settings on record: compound 5 μM; ATP at Km; 30-minute pre-incubation. In a few lines: (§1)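 Inhibition is expressed as percent at 5 μM or as IC50, with ATP set at the Km of each kinase and a 30-minute compound pre-incubation. Detection used an accepted enzymatic format such as Caliper mobility shift.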

The target of a further experiment is T2, TNIK (Homo sapiens, UniProt Q9UKE5).
T2 construct: Nanosyn (contract laboratory that ran the panel)
The settings on record: compound 5 μM; ATP at Km; 30-minute pre-incubation. In a few lines: as §1

The next experiment deals with T3, TAOK2 (Homo sapiens, UniProt Q9UL54).
T3 construct: Nanosyn (contract laboratory that ran the panel)
T3 sequence (Q9UL54 1-1235): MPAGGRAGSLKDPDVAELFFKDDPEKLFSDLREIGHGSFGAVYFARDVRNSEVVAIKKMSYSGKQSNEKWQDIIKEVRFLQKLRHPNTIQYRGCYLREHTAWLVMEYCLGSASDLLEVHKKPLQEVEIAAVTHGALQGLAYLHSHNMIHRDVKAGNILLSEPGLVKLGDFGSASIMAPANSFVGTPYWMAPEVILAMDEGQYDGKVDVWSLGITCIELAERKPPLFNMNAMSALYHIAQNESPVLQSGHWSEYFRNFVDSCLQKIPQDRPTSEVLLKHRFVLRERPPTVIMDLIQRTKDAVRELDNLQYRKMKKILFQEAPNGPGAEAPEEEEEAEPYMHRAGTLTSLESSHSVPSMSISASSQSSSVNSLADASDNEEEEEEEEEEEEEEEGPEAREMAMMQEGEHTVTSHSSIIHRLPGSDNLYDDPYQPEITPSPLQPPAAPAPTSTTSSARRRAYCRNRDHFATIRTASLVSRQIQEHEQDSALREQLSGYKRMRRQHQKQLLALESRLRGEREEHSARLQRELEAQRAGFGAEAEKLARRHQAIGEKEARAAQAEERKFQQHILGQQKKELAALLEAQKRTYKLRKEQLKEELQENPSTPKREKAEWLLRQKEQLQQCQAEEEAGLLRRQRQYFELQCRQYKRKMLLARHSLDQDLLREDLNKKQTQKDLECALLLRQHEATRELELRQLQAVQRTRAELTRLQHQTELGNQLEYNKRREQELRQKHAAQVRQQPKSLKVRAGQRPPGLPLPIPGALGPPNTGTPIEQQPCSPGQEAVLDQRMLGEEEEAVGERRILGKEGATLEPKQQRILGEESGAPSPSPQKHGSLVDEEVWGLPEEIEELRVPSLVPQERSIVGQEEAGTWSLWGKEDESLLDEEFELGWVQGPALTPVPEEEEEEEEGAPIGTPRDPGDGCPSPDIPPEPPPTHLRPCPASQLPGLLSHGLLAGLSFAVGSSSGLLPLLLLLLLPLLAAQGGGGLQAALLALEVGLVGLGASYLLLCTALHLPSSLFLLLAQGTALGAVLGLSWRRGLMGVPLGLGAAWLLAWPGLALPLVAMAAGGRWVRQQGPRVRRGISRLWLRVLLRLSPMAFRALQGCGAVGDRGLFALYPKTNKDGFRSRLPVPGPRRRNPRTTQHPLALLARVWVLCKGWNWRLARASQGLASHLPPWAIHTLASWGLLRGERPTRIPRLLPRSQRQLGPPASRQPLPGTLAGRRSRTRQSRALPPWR
The settings on record: compound 5 μM; ATP at Km; 30-minute pre-incubation. In a few lines: as §1

The target in a further experiment is T4, KIT (Homo sapiens, UniProt P10721).
T4 construct: purchased Nanosyn (contract screening)
The following applies: compound 5 μM; ATP at Km; 30-minute pre-incubation. In a few lines: as §1

A further experiment has as its target T5, DDR2 (Homo sapiens, UniProt Q16832).
T5 construct: purchased Nanosyn (contract screening)
T5 sequence (Q16832 22-855): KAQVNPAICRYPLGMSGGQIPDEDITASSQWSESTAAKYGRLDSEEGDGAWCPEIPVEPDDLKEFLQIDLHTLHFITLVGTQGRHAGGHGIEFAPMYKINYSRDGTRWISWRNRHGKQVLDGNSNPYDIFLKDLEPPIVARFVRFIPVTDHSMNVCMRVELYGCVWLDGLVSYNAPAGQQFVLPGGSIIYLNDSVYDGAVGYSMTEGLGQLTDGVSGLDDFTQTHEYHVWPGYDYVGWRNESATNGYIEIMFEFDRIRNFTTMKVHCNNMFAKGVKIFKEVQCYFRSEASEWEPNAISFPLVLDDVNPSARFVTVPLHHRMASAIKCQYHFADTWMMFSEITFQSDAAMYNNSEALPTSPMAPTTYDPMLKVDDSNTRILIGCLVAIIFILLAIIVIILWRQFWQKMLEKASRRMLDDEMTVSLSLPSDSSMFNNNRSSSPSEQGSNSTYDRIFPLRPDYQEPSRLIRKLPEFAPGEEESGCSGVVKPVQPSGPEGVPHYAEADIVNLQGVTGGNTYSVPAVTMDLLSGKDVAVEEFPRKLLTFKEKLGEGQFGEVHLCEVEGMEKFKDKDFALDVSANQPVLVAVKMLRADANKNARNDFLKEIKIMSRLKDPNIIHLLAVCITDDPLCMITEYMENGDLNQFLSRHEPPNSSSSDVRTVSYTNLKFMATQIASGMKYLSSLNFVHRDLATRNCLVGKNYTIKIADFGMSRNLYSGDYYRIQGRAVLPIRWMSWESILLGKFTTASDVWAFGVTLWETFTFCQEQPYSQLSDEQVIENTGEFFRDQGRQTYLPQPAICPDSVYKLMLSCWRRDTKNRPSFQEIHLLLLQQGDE
The following applies: ATP at Km, 30-minute pre-incubation; for inhibition at 5 µM: compound 5 μM; for IC50: read-out: kinase inhibition in terms of IC50, DDR2. In a few lines:
as §1

For another experiment, the system named is EPH. The following applies: compound 5 μM; ATP at Km; 30-minute pre-incubation. In a few lines:
as §1

The target in the next experiment is T6, SRC (Homo sapiens, UniProt P12931).
T6 construct: Nanosyn (contract laboratory that ran the panel)
The settings on record: compound 5 μM; ATP at Km; 30-minute pre-incubation. In a few lines:
as §1

For a further experiment, the target named is T7, CSF1R (Homo sapiens, UniProt P07333).
T7 construct: purchased Nanosyn (contract screening)
The settings on record: compound 5 μM; ATP at Km; 30-minute pre-incubation. In a few lines: as §1

In another experiment the target is T8, LCK (Homo sapiens, UniProt P06239).
T8 construct: purchased Nanosyn (contract screening)
The settings on record: ATP at Km, 30-minute pre-incubation; for inhibition at 5 µM: compound 5 μM; for IC50: read-out: kinase inhibition in terms of IC50, LCK. In a few lines:
as §1

For the next experiment, the target named is T9, HGK (Homo sapiens, UniProt O95819).
T9 construct: purchased Nanosyn (contract screening)
The following applies: compound 5 μM; ATP at Km; 30-minute pre-incubation. In a few lines: as §1

SMILES strings stand for the structures.

T8 sequence (P06239 whole entry): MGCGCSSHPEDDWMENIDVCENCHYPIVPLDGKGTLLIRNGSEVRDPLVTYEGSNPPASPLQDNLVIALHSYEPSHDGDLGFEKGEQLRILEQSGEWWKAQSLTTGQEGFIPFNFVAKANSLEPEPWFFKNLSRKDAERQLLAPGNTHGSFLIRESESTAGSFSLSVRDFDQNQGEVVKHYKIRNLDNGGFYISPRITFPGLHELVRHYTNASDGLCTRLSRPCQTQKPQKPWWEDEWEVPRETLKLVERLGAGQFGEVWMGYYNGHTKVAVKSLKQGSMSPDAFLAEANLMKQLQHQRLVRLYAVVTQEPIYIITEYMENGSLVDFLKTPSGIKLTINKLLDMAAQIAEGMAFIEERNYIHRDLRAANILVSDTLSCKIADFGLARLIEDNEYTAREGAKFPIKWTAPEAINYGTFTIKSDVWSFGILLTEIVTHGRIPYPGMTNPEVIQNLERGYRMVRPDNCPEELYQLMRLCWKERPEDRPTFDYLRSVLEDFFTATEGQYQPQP
T2 sequence (Q9UKE5 whole entry): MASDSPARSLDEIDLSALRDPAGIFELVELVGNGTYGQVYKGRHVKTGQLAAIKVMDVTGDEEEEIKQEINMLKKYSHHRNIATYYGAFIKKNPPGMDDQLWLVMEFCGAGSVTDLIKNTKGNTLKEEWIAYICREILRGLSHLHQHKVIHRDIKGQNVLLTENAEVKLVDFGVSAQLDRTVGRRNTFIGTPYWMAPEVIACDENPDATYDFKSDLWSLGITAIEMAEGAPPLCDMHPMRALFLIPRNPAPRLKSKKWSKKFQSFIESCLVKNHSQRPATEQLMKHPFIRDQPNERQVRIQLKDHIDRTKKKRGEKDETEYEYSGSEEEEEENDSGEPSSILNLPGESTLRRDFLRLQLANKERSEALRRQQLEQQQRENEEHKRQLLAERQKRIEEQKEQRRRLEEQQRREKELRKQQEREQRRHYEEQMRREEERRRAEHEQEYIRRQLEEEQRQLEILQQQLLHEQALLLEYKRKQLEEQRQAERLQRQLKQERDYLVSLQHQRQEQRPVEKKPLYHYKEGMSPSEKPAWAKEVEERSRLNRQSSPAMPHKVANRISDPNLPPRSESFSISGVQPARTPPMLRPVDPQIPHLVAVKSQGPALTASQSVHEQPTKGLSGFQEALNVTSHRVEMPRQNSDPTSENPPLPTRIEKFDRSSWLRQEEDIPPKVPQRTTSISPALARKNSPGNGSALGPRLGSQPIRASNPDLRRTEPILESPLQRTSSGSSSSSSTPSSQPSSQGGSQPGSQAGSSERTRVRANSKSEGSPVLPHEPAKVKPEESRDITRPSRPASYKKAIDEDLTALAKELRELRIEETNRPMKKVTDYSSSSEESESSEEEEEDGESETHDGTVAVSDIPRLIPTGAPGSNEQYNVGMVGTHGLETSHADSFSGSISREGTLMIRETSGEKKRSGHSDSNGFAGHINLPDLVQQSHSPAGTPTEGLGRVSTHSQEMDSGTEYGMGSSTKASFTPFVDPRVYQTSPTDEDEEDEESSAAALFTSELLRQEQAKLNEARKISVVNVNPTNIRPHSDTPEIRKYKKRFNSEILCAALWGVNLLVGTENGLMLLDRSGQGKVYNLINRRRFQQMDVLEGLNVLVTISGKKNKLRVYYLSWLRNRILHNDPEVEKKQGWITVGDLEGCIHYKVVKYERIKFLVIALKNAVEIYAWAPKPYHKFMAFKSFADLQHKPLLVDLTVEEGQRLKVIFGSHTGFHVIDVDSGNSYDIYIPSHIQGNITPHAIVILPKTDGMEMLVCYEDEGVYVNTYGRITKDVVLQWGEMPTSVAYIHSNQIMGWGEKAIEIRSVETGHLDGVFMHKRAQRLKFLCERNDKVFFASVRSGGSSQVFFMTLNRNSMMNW
T9 sequence (O95819 whole entry): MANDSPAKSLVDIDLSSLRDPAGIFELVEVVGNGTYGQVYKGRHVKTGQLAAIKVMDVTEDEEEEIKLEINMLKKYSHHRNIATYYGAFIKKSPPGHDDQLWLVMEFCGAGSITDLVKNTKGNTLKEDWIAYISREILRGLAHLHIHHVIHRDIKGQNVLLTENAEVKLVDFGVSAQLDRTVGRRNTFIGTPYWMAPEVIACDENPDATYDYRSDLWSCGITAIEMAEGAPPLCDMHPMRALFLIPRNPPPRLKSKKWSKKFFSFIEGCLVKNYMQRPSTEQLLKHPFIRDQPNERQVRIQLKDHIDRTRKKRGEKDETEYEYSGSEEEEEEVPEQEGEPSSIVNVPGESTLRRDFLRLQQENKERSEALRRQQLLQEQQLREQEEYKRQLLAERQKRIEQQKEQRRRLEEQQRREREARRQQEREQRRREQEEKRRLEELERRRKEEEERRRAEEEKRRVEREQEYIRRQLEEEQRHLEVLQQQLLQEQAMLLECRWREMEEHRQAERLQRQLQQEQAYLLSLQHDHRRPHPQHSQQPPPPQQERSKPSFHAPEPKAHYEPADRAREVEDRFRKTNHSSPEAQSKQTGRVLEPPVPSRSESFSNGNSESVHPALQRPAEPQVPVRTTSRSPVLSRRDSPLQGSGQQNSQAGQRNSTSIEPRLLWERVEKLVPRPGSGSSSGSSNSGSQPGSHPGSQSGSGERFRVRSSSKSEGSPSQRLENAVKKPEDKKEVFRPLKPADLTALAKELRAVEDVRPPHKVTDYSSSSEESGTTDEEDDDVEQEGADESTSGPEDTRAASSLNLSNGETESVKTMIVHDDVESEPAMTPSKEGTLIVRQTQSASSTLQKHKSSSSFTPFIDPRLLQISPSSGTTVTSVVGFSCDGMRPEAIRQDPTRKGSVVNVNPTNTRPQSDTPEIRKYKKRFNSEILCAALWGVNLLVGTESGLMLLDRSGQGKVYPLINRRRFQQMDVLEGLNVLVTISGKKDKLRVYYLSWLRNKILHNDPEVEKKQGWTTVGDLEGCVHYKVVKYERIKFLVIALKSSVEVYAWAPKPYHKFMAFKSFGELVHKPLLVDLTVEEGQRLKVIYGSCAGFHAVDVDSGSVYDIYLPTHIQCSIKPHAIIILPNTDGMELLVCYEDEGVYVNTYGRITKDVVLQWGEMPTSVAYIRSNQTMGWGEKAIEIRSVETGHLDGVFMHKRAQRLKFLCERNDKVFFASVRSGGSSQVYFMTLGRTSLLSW
T6 sequence (P12931 whole entry): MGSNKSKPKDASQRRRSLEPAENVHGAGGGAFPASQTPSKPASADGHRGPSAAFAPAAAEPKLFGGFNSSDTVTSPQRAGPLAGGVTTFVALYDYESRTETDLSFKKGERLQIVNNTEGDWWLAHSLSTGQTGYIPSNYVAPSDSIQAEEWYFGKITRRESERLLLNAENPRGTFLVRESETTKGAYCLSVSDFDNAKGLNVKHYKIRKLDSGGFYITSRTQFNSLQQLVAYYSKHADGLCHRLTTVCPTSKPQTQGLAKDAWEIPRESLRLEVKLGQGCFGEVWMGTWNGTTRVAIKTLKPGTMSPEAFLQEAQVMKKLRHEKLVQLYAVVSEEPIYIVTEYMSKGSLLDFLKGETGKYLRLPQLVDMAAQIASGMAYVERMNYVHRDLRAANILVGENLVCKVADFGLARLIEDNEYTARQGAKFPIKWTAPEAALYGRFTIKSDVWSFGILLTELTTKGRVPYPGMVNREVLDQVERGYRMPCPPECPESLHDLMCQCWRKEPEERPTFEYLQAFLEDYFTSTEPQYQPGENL
T4 sequence (P10721 26-976): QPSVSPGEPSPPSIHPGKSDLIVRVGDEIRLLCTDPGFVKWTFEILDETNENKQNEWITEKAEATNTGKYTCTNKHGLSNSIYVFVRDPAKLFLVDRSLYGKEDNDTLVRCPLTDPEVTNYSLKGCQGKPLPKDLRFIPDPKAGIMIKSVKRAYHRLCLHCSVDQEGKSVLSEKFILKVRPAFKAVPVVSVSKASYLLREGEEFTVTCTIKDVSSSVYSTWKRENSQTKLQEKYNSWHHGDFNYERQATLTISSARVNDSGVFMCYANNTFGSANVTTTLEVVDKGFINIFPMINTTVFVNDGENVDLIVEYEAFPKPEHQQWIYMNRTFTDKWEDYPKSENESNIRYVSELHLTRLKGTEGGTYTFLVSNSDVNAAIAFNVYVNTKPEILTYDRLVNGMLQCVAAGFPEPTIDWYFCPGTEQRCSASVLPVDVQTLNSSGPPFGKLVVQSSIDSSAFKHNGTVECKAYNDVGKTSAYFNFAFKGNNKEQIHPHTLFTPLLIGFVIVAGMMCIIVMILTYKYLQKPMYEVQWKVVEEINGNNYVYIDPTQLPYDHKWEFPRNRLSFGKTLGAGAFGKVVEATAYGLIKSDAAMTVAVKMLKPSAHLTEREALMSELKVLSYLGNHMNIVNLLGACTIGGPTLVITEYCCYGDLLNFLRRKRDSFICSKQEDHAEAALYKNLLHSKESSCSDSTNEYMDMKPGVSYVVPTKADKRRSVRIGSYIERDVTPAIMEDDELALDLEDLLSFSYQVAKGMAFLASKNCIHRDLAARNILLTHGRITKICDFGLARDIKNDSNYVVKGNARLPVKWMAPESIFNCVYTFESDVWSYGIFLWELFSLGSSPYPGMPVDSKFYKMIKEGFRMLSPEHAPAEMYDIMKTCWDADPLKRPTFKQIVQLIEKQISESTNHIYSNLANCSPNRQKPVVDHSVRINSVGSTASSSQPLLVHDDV

In general, inhibition refers to the share of the control response that was lost under treatment. A low value points to a weak effect. Consider `CNC(=O)c1cc(Oc2ccc(F)c(NC(=O)c3cc([S+](C)[O-])n(-c4ccc(F)cc4)n3)c2)ccn1` (centres unmarked) [Ex7, 4-(4-fluoro-3-(1-(4-fluorophenyl)-5-(methylsulfinyl)-1H-pyrazole-3-carboxamido)phenoxy)-N-methylpicolinamide], for which the inhibition at 5 µM against KDR, against TNIK, on TAOK2, on KIT, against DDR2 and at SRC was less than 79% each time. In addition, the inhibition at 5 µM on CSF1R, against LCK and at HGK was less than 79% each time. Also, the “kinase inhibition, EPH” value in the experiment with EPH was “D (D=79% and less)”.

With `CSc1cc(C(=O)Nc2cc(Oc3ccnc(C(=O)NC4CNC4)c3)ccc2F)nn1-c1ccc(F)cc1` [Ex8, N-(azetidin-3-yl)-4-(4-fluoro-3-(1-(4-fluorophenyl)-5-(methylthio)-1H-pyrazole-3-carboxamido)phenoxy)picolinamide], the inhibition at 5 µM on KDR is less than 79%; against TNIK, 90 to 94%; against TAOK2 it was less than 79%; against KIT it was less than 79%; against DDR2 it was less than 79%; on SRC, less than 79%. Moreover, the values for the inhibition at 5 µM at CSF1R, against LCK and against HGK were less than 79%, less than 79% and 80 to 89%, respectively. In the experiment with EPH, the “kinase inhibition, EPH” value is “D (D=79% and less)”.

Regarding `Cc1ccc(NC(=O)c2cc(S(C)(=O)=O)n(-c3ccc(F)cc3)n2)cc1-c1cc(N2CCOCC2)c(=O)n(C)c1` [Ex12, 1-(4-fluorophenyl)-N-(4-methyl-3-(1-methyl-5-morpholino-6-oxo-1,6-dihydropyridin-3-yl)phenyl)-5-(methylsulfonyl)-1H-pyrazole-3-carboxamide], the inhibition at 5 µM was less than 79% at KDR; less than 79% against TNIK; 80 to 89% at TAOK2; less than 79% against KIT; less than 79% against DDR2; less than 79% against SRC. Also, the inhibition at 5 µM against CSF1R, at LCK and at HGK was less than 79% throughout. Further, the “kinase inhibition, EPH” value with EPH was “D (D=79% and less)”.

`CCOC(=O)Nc1cn2nc(Nc3cc(NC(=O)c4cc(S(C)(=O)=O)n(-c5ccc(F)cc5)n4)ccc3C)ccc2n1` [Ex15, ethyl (6-((5-(1-(4-fluorophenyl)-5-(methylsulfonyl)-1H-pyrazole-3-carboxamido)-2-methylphenyl)amino)imidazo[1,2-b]pyridazin-2-yl)carbamate]: the inhibition at 5 µM on KDR is 80 to 89%; against TNIK it was less than 79%; at TAOK2, less than 79%; against KIT it was no less than 95%; against DDR2 it was no less than 95%; at SRC, 90 to 94%. The inhibition at 5 µM is no less than 95% against CSF1R, no less than 95% against LCK and less than 79% on HGK. Besides, in the experiment on EPH, the “kinase inhibition, EPH” value is “D (D=79% and less)”.

The term IC50 denotes the concentration at which inhibition is half-maximal. As for `COc1cc2nccc(Oc3ccc(NC(=O)c4cc(S(C)(=O)=O)n(-c5ccc(F)cc5)n4)cc3)c2cc1OC` [Ex72, N-(4-((6,7-dimethoxyquinolin-4-yl)oxy)phenyl)-1-(4-fluorophenyl)-5-(methylsulfonyl)-1H-pyrazole-3-carboxamide], at LCK, the IC50 lay in the range of 500 to 1000 nM.

On to `CNC(=O)c1cc(Oc2ccc(NC(=O)c3cc(S(C)(=O)=O)n(-c4ccc(F)cc4)n3)c(F)c2)ccn1` [Ex17, 4-(3-fluoro-4-(1-(4-fluorophenyl)-5-(methylsulfonyl)-1H-pyrazole-3-carboxamido)phenoxy)-N-methylpicolinamide], for which the inhibition at 5 µM against KDR, on TNIK, against TAOK2, on KIT, on DDR2 and against SRC was less than 79% throughout. The inhibition at 5 µM against CSF1R, against LCK and on HGK was less than 79% each time. The “kinase inhibition, EPH” value in the experiment on EPH is “D (D=79% and less)”.

Regarding `Cc1ccc(NC(=O)c2cc(S(C)(=O)=O)n(-c3ccc(F)cc3)n2)cc1-c1cc(OCCO)nc(N2CCOCC2)c1` [Ex9, 1-(4-fluorophenyl)-N-(3-(2-(2-hydroxyethoxy)-6-morpholinopyridin-4-yl)-4-methylphenyl)-5-(methylsulfonyl)-1H-pyrazole-3-carboxamide], the inhibition at 5 µM on KDR is less than 79%; against TNIK, less than 79%; at TAOK2 it was no less than 95%; at KIT it was less than 79%; at DDR2 it was 90 to 94%; at SRC, less than 79%. Moreover, the inhibition at 5 µM against CSF1R, against LCK and on HGK was less than 79% throughout. In addition, the “kinase inhibition, EPH” value in the experiment with EPH is “D (D=79% and less)”.

On to `COc1cc2nccc(Oc3ccc(NC(=O)c4cc(S(C)(=O)=O)n(-c5ccc(F)cc5)n4)cc3F)c2cc1OC` [Ex73, N-(4-((6,7-dimethoxyquinolin-4-yl)oxy)-3-fluorophenyl)-1-(4-fluorophenyl)-5-(methylsulfonyl)-1H-pyrazole-3-carboxamide], for which the IC50 at DDR2 was less than 500 nM; on LCK, 500 to 1000 nM.

Take `COc1cc2nccc(Oc3ccc(NC(=O)c4cc(S(C)(=O)=O)n(-c5ccc(F)cc5)n4)c(F)c3)c2cc1OC` [Ex71, N-(4-((6,7-dimethoxyquinolin-4-yl)oxy)-2-fluorophenyl)-1-(4-fluorophenyl)-5-(methylsulfonyl)-1H-pyrazole-3-carboxamide]: the IC50 on DDR2 and on LCK was less than 500 nM each time.
